Measured values from the NIST ThermoML archive (doi:10.1016/j.tca.2005.03.009).

Experiment: excess molar enthalpy (molar enthalpy of mixing); xn = mol fraction of the nth substance listed
Conditions: 298.15 K, 10000 kPa, Liquid, Flow calorimetry

CCOC(C)=O [ethyl acetate] + CC(C)O
Conditions	excess molar enthalpy [kJ/mol]
x1 = 0.039	0.272
x1 = 0.07	0.475
x1 = 0.1	0.647
x1 = 0.132	0.805
x1 = 0.163	0.952
x1 = 0.196	1.08
x1 = 0.229	1.21
x1 = 0.262	1.31
x1 = 0.296	1.41
x1 = 0.331	1.49
x1 = 0.366	1.56
x1 = 0.402	1.62
x1 = 0.439	1.65
x1 = 0.476	1.69
x1 = 0.514	1.71
x1 = 0.553	1.7
x1 = 0.592	1.68
x1 = 0.632	1.63
x1 = 0.673	1.57
x1 = 0.715	1.47
x1 = 0.758	1.34
x1 = 0.801	1.19
x1 = 0.845	0.999
x1 = 0.891	0.761
x1 = 0.937	0.482
x1 = 0.952	0.378
x1 = 0.969	0.254

CCOC(C)=O [ethyl acetate] + CCO
Conditions	excess molar enthalpy [kJ/mol]
x1 = 0.03	0.141
x1 = 0.054	0.247
x1 = 0.078	0.366
x1 = 0.104	0.47
x1 = 0.13	0.566
x1 = 0.157	0.661
x1 = 0.184	0.755
x1 = 0.213	0.846
x1 = 0.243	0.931
x1 = 0.274	1.01
x1 = 0.306	1.08
x1 = 0.339	1.15
x1 = 0.373	1.2
x1 = 0.409	1.25
x1 = 0.446	1.3
x1 = 0.485	1.33
x1 = 0.525	1.34
x1 = 0.567	1.33
x1 = 0.611	1.31
x1 = 0.657	1.26
x1 = 0.705	1.19
x1 = 0.754	1.09
x1 = 0.807	0.947
x1 = 0.861	0.763
x1 = 0.919	0.509
x1 = 0.939	0.4
x1 = 0.96	0.274

CCOC(C)=O [ethyl acetate] + CCCO
Conditions	excess molar enthalpy [kJ/mol]
x1 = 0.039	0.251
x1 = 0.068	0.397
x1 = 0.098	0.542
x1 = 0.129	0.674
x1 = 0.16	0.796
x1 = 0.192	0.919
x1 = 0.225	1.02
x1 = 0.258	1.12
x1 = 0.291	1.2
x1 = 0.326	1.28
x1 = 0.361	1.36
x1 = 0.396	1.41
x1 = 0.433	1.46
x1 = 0.47	1.48
x1 = 0.508	1.51
x1 = 0.547	1.51
x1 = 0.586	1.5
x1 = 0.627	1.46
x1 = 0.668	1.42
x1 = 0.71	1.34
x1 = 0.753	1.24
x1 = 0.797	1.11
x1 = 0.842	0.932
x1 = 0.888	0.725
x1 = 0.935	0.457
x1 = 0.951	0.351
x1 = 0.968	0.24

CCC(C)=O [butanone] + CCOC(C)=O
Conditions	excess molar enthalpy [kJ/mol]
x2 = 0.047	0.297
x2 = 0.082	0.5
x2 = 0.118	0.692
x2 = 0.153	0.84
x2 = 0.189	1
x2 = 0.225	1.13
x2 = 0.262	1.26
x2 = 0.298	1.35
x2 = 0.335	1.45
x2 = 0.371	1.52
x2 = 0.408	1.58
x2 = 0.446	1.63
x2 = 0.483	1.67
x2 = 0.52	1.69
x2 = 0.558	1.69
x2 = 0.596	1.68
x2 = 0.634	1.62
x2 = 0.673	1.57
x2 = 0.711	1.48
x2 = 0.75	1.38
x2 = 0.789	1.24
x2 = 0.828	1.09
x2 = 0.867	0.905
x2 = 0.907	0.68
x2 = 0.947	0.431
x2 = 0.96	0.324
x2 = 0.974	0.217

CCOC(C)=O [ethyl acetate] + CO
Conditions	excess molar enthalpy [kJ/mol]
x1 = 0.057	0.183
x1 = 0.086	0.273
x1 = 0.113	0.334
x1 = 0.188	0.523
x1 = 0.257	0.68
x1 = 0.319	0.809
x1 = 0.377	0.897
x1 = 0.43	0.968
x1 = 0.478	0.996
x1 = 0.524	1.01
x1 = 0.566	1.01
x1 = 0.605	0.987
x1 = 0.641	0.977
x1 = 0.675	0.945
x1 = 0.707	0.91
x1 = 0.738	0.87
x1 = 0.766	0.822
x1 = 0.793	0.768
x1 = 0.818	0.711
x1 = 0.842	0.651
x1 = 0.864	0.585
x1 = 0.886	0.518
x1 = 0.906	0.447
x1 = 0.926	0.368
x1 = 0.944	0.285
x1 = 0.962	0.2
x1 = 0.979	0.106
